Laboratory results reported in patent US8546406B2, “Heterocyclic compounds as metap-2 inhibitors” (Merck Patent GmbH, priority 2009, dated 2013).

Target: MetAP-2 (Homo sapiens, UniProt P50579)
Assay: MetAP-2 activity measurement (coupled enzymatic reactions, substrate Met-Arg-Ser, photometric at 450 nm)
Format: biochemical
Details: Inhibition of MetAP-2; read-out: IC50 enzyme
Experimental: The MetAP-2 activity is determined by coupling enzymatic reactions. The tripeptide Met-Arg-Ser (MAS) is employed as substrate. The methionine liberated is firstly converted into Metox and H2O2 by L-aminooxidase (AAO). In the second step, the peroxidase (POD) with the aid of the H2O2 catalyses the oxidation of the leukodye dianisidine to dianisidineox, the increase of which is detected photometrically at 450 nm.
MetAP-2 activity can be recorded continuously as kinetics. The reaction scheme illustrates that one mol of dianisidineox is formed per mol of methionene. The MetAP-2 enzyme activity can therefore be calculated directly as Δ absorption per time unit. Qualification of the MetAP-2 activity (mol of Met/time unit) is possible with the aid of the dianisidineox extinction coefficient. The change in extinction per time unit is depicted graphically and a slope calculation is carried out in the visually linear region of the reaction.

Chain of MetAP-2 (P50579 whole entry, species assumed): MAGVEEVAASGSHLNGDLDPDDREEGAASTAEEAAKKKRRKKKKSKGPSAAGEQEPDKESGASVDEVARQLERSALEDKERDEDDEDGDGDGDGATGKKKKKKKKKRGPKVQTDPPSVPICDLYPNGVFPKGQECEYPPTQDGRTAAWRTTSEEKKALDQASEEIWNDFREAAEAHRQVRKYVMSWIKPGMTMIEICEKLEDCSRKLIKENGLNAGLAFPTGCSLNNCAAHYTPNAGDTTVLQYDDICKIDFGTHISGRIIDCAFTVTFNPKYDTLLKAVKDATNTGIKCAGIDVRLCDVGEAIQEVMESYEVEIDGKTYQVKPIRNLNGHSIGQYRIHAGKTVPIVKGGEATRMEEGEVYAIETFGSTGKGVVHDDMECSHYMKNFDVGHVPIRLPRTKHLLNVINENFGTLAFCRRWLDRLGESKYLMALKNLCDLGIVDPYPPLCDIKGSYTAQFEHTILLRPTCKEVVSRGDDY

Compound	IC50 [nM]
c1ccc2c(OC[C@H]3CCCN3c3ccnc4nncn34)cccc2c1 [Compound A4, 5-[(R)-2-(naphthalen-1-yloxymethyl)pyrrolidin-1-yl]-[1,2,4]-triazolo[4,3-a]pyrimidine]	> 10000
c1ccc2c(OC[C@H]3CCCN3c3ccnc4ncnn34)ccnc2c1 [Compound A8]	10 to 1000
FC(F)(F)Oc1ccc2nccc(OC[C@H]3CCCN3c3ccnc4ncnn34)c2c1 [Compound A9]	10 to 1000
FC(F)(F)c1ccc2nccc(OC[C@H]3CCCN3c3ccnc4ncnn34)c2c1 [Compound A10]	10 to 1000
O=C(NCc1ccc(F)cc1)c1cc(OC[C@H]2CCCN2c2ccnc3ncnn23)c2ccccc2n1 [Compound A11]	10 to 1000
O=C(NCCc1ccc(F)cc1)c1cc(OC[C@H]2CCCN2c2ccnc3ncnn23)c2ccccc2n1 [Compound A12]	10 to 1000
CCNC(=O)c1cc(OC[C@H]2CCCN2c2ccnc3ncnn23)c2ccccc2n1 [Compound A13]	10 to 1000
c1ccc2c(OC[C@H]3CCCN3c3ccnc4ncnn34)nccc2c1 [Compound A16]	10 to 1000
c1cc(OC[C@H]2CCCN2c2ccnc3ncnn23)c2ccncc2c1 [Compound A17]	10 to 1000
O=C(NCCCN1CCCC1=O)c1cc(OC[C@H]2CCCN2c2ccnc3ncnn23)c2ccccc2n1 [Compound A18]	10 to 1000
CCOC(=O)c1n[nH]c(C)c1OC[C@H]1CCCN1c1ccnc2ncnn12 [Compound A19]	10 to 1000
c1ccc2c(OC[C@H]3CCCN3c3ccnc4ncnn34)ccc(CNCCN3CCOCC3)c2c1 [Compound A20]	10 to 1000
c1ccc2c(OC[C@H]3CCCN3c3ccnc4ncnn34)ccc(CNCCCN3CCOCC3)c2c1 [Compound A21]	10 to 1000
O=C(NCc1ccccc1)c1cc(OC[C@H]2CCCN2c2ccnc3ncnn23)c2ccccc2n1 [Compound A22]	10 to 1000
O=C(NCCc1c[nH]c2ccccc12)c1cc(OC[C@H]2CCCN2c2ccnc3ncnn23)c2ccccc2n1 [Compound A23]	10 to 1000
NS(=O)(=O)c1ccc(CCNC(=O)c2cc(OC[C@H]3CCCN3c3ccnc4ncnn34)c3ccccc3n2)cc1 [Compound A24]	10 to 1000
CC(C)(C)OC(=O)N1CCc2cccc(OC[C@H]3CCCN3c3ccnc4ncnn34)c2C1 [Compound A25]	1000 to 10000
O=C(OC[C@H]1CCCN1c1ccnc2ncnn12)c1ccc(F)cc1 [Compound A26]	10 to 1000
c1cc2c(c(OC[C@H]3CCCN3c3ccnc4ncnn34)c1)CNCC2 [Compound A27]	10 to 1000
O=C(NCCc1ccc(Cl)cc1)c1cc(OC[C@H]2CCCN2c2ccnc3ncnn23)c2ccccc2n1 [Compound A28]	1000 to 10000
CC(C)(C)OC(=O)N[C@H](CC(N)=O)C(=O)N1CCc2cccc(OC[C@H]3CCCN3c3ccnc4ncnn34)c2C1 [Compound A29]	10 to 1000
CC(C)(C)OC(=O)NCC(=O)N1CCc2cccc(OC[C@H]3CCCN3c3ccnc4ncnn34)c2C1 [Compound A31]	10 to 1000
CC(=O)N[C@@H](CC(N)=O)C(=O)N1CCc2cccc(OC[C@H]3CCCN3c3ccnc4ncnn34)c2C1 [Compound A32]	10 to 1000

Compound	IC50 [nM]
CC(=O)N1CCc2cccc(OC[C@H]3CCCN3c3ccnc4ncnn34)c2C1 [Compound A33]	10 to 1000
O=C(c1ccno1)N1CCc2cccc(OC[C@H]3CCCN3c3ccnc4ncnn34)c2C1 [Compound A34]	10 to 1000
CC(C)(C)OC(=O)NCCCCN1CCc2cccc(OC[C@H]3CCCN3c3ccnc4ncnn34)c2C1 [Compound A35]	10 to 1000
NC(=O)C[C@@H](N)C(=O)N1CCc2cccc(OC[C@H]3CCCN3c3ccnc4ncnn34)c2C1 [Compound A36]	10 to 1000
NCC(=O)N1CCc2cccc(OC[C@H]3CCCN3c3ccnc4ncnn34)c2C1 [Compound A37]	10 to 1000
N#CCCCCN1CCc2cccc(OC[C@H]3CCCN3c3ccnc4ncnn34)c2C1 [Compound A38]	10 to 1000
CC(C)(C)OC(=O)N[C@H](CC#N)C(=O)N1CCc2cccc(OC[C@H]3CCCN3c3ccnc4ncnn34)c2C1 [Compound A39]	10 to 1000
N#CCCCCOC(=O)N1CCc2cccc(OC[C@H]3CCCN3c3ccnc4ncnn34)c2C1 [Compound A40]	10 to 1000
NCCCCN1CCc2cccc(OC[C@H]3CCCN3c3ccnc4ncnn34)c2C1 [Compound A41]	10 to 1000
NCCCCOC(=O)N1CCc2cccc(OC[C@H]3CCCN3c3ccnc4ncnn34)c2C1 [Compound A42]	10 to 1000
COc1cccc(C(=O)OC[C@H]2CCCN2c2ccnc3ncnn23)c1 [Compound A43]	10 to 1000
O=C(OC[C@H]1CCCN1c1ccnc2ncnn12)c1cccc(Br)c1 [Compound A44]	10 to 1000
O=C(OC[C@H]1CCCN1c1ccnc2ncnn12)c1cccc(I)c1 [Compound A45]	10 to 1000
O=C(OC[C@H]1CCCN1c1ccnc2ncnn12)c1cc(Cl)nc2ccccc12 [Compound A46]	10 to 1000
c1ccc2c(OC[C@H]3CCCN3c3ccnc4nsnc34)cccc2c1 [Compound A47]	> 10000
FC(F)(F)c1cccc(COC[C@H]2CCCN2c2ccnc3ncnn23)c1 [Compound A48]	1000 to 10000
Ic1cccc(COC[C@H]2CCCN2c2ccnc3ncnn23)c1 [Compound A49]	1000 to 10000
CN(C)c1cccc(C(=O)OC[C@H]2CCCN2c2ccnc3ncnn23)c1 [Compound A50]	10 to 1000
COc1cccc(COC[C@H]2CCCN2c2ccnc3ncnn23)c1 [Compound A51]	10 to 1000
O=C(OC[C@H]1CCCN1c1ccnc2ncnn12)c1cccc(F)c1 [Compound A52]	10 to 1000
NC(=O)CCCC(=O)N1CCc2cccc(OC[C@H]3CCCN3c3ccnc4ncnn34)c2C1 [Compound A53]	10 to 1000
Fc1cccc(COC[C@H]2CCCN2c2ccnc3ncnn23)c1 [Compound A55]	10 to 1000
c1cncc(COC[C@H]2CCCN2c2ccnc3ncnn23)c1 [Compound A56]	1000 to 10000

Compound	IC50 [nM]
O=C(O)Cc1ccccc1OC[C@H]1CCCN1c1ccnc2ncnn12 [Compound A57]	> 10000
c1cc(COC[C@H]2CCCN2c2ccnc3ncnn23)ccn1 [Compound A58]	> 10000
COC(=O)c1ccc2[nH]c(COC[C@H]3CCCN3c3ccnc4ncnn34)cc2c1 [Compound A59]	10 to 1000
O=C(OC[C@H]1CCCN1c1ccnc2ncnn12)c1cccc(C(F)(F)F)c1 [Compound A60]	> 10000
O=C(OC[C@H]1CCCN1c1ccnc2ncnn12)c1ccc(Cl)nc1 [Compound A61]	10 to 1000
O=C(OC[C@H]1CCCN1c1ccnc2ncnn12)c1cccnc1Oc1ccccc1 [Compound A62]	10 to 1000
O=C(OC[C@H]1CCCN1c1ccnc2ncnn12)c1ccc(Oc2ccccc2)nc1 [Compound A64]	10 to 1000
Clc1cc(COC[C@H]2CCCN2c2ccnc3ncnn23)cc(Cl)n1 [Compound A65]	> 10000
Brc1cccc(COC[C@H]2CCCN2c2ccnc3ncnn23)c1 [Compound A66, 7-[(R)-2-(3-Bromobenzyloxymethyl)pyrrolidin-1-yl]-[1,2,4]triazolo[1,5-a]pyrimidine]	10 to 1000
FC(F)(F)Oc1cccc(COC[C@H]2CCCN2c2ccnc3ncnn23)c1 [Compound A67, 7-[(R)-2-(3-Trifluoromethoxybenzyloxymethyl)-pyrrolidin-1-yl]-[1,2,4]triazolo[1,5-a]pyrimidine]	10 to 1000
O=C(OC[C@H]1CCCN1c1ccnc2ncnn12)c1ccccc1I [Compound A68, (R)-1-[1,2,4]Triazolo[1,5-a]pyrimidin-7-yl-pyrrolidin-2-ylmethyl 2-iodobenzoate]	10 to 1000
O=C(OC[C@H]1CCCN1c1ccnc2ncnn12)c1ccccn1 [Compound A69, (R)-1-[1,2,4]Triazolo[1,5-a]pyrimidin-7-yl-pyrrolidin-2-ylmethyl pyridine-2-carboxylate]	10 to 1000
O=C(OC[C@H]1CCCN1c1ccnc2ncnn12)c1cccnc1 [Compound A70]	10 to 1000
O=C(OC[C@H]1CCCN1c1ccnc2ncnn12)c1ccccc1 [Compound A71, (R)-1-[1,2,4]Triazolo[1,5-a]pyrimidin-7-yl-pyrrolidin-2-ylmethyl benzoate]	10 to 1000
CCOc1cccc(C(=O)OC[C@H]2CCCN2c2ccnc3ncnn23)c1 [Compound A72, (R)-1-[1,2,4]Triazolo[1,5-a]pyrimidin-7-yl-pyrrolidin-2-ylmethyl 3-ethoxybenzoate]	10 to 1000
O=C(OC[C@H]1CCCN1c1ccnc2ncnn12)c1cc(Cl)ccc1F [Compound A73, (R)-1-[1,2,4]Triazolo[1,5-a]pyrimidin-7-yl-pyrrolidin-2-ylmethyl 5-chloro-2-fluorobenzoate]	10 to 1000
O=C(OC[C@H]1CCCN1c1ccnc2ncnn12)c1cccc(CCl)c1 [Compound A74, (R)-1-[1,2,4]Triazolo[1,5-a]pyrimidin-7-yl-pyrrolidin-2-ylmethyl 3-chloromethylbenzoate]	10 to 1000
NCCCOC(=O)N1CCc2cccc(OC[C@H]3CCCN3c3ccnc4ncnn34)c2C1 [Compound A75]	10 to 1000
NCCCN1CCc2cccc(OC[C@H]3CCCN3c3ccnc4ncnn34)c2C1 [Compound A76]	10 to 1000
O=C1c2ccccc2C(=O)N1C[C@H]1CCCN1c1ccnc2ncnn12 [Compound A78]	1000 to 10000
N#Cc1cccc(C(=O)OC[C@H]2CCCN2c2ccnc3ncnn23)c1 [Compound A79, (R)-1-[1,2,4]Triazolo[1,5-a]pyrimidin-7-yl-pyrrolidin-2-ylmethyl 3-cyanobenzoate]	10 to 1000
Nc1nc2nccc(N3CCC[C@@H]3COc3cccc4ccccc34)n2n1 [Compound A80]	1000 to 10000
COC(=O)c1ccc2[nH]c(CC3CCCN3c3ccnc4ncnn34)cc2c1 (stereo not drawn) [Compound A81]	10 to 1000
